In patent US12624127B2, “Chitosan derivatives as antimicrobials and synergistic combinations thereof” (priority 2022, dated 2026):

What was measured:
[1] = design: species or system mice; settings: mouse, in vivo, ip, 25 mg/kg
Procedure: The biomarkers were determined before treatment (Day 0), and Day 1 and Day 7 after administration. The biomarkers of Day 0 were the untreated controls. The animal experiments were carried out in accordance to the Code of Practice for the Institutional Care and Use of Animals for Scientific Purposes and were approved by the Ethics Committee of Ningbo University.

[2] = test system: 3T3 cells
Procedure: In a 96-well plate, 3T3 cells were co-cultured for 24 h at 37° C. with polymer (100 μg/mL or 200 μg/mL) at initial cell density of 1×10^5 cells per well. At the end of the incubation period, the culture medium was removed, each well was washed with PBS followed by the addition of MTT solution, and the plate was incubated for 4 h at 37° C. The MTT medium was then removed, 100 μL of DMSO was added to each well, the plate was shaken at 100 rpm for 15 min and the absorbance at 570 nm was measured with plate reader (BIO-RAD Benchmark Plus, US).

[3] = test system: rabbit erythrocyte suspension; assay: Hemolytic activity test; type: cell-based; settings: 78 μg/mL, 1 h
Procedure: Fresh rabbit blood (5 mL) was washed three times with sterilized PBS and diluted to a final concentration of 5% v/v. A series concentration of 2,6-DAC and Gramicidin control were incubated with the prepared erythrocyte suspension for 1 h with shaking in a 96-well plate. The supernatant (80 μL) was aliquoted to a new plate after centrifugation at 1000 g for 10 min. The absorbance at 540 nm was recorded by the TECAN microplate reader. 0.1% Triton X-100 that can lyse red blood cells completely was used as the positive control (Op), and PBS was used as the negative control (On). The percentage of hemolysis was determined by the following equation: Hemolysis%=[(Ox−On)/(Op−On)]×100% Results and Discussion

[4] = test system: MDR A. baumannii (AB-1); assay: Neutropenic lung infection model in BALB/c mice; type: in vivo, Acinetobacter baumannii; settings: rifampicin 10 mg/kg alone, 24 h
Procedure: Bacterial cultures of MDR . baumannii (AB-1) were prepared and used to infect 8-week-old female BALB/c mice. 10^8 CFU/mL of AB-1 (30 μL) was inhaled by the mouse to introduce the infection via the intranasal route. After 2 h of infection, a specific dosage of antibiotic (novobiocin or rifampicin, 10 mg/kg), 2,6-DAC (25 mg/kg) or the combination of antibiotic (novobiocin or rifampicin, 10 mg/kg) and 2,6-DAC (25 mg/kg) were administrated through the intranasal route for 2,6-DAC and through the intraperitoneal route for antibiotic. Mice euthanasian at indicated time points (24 h) was achieved by CO2 asphyxiation followed by cervical dislocation. For histopathological analysis, the lung was fixed in 10% neutral buffered formalin and embedded in paraffin. The paraffin-embedded sections were stained with H&E. The lung was recovered and counted for bacteria concentration.

2,6-Diamino Chitosan [Compound 5a]
Change in biomarkers of kidney and liver functions (in words) [1]: did not cause a significant change
Biocompatibility (in words) [2]: good biocompatibility

Gramicidin
Hemolysis [3]: 100%

CO[C@H]1/C=C/O[C@@]2(C)Oc3c(C)c(O)c4c(O)c(c(/C=N/N5CCN(C)CC5)c(O)c4c3C2=O)NC(=O)/C(C)=C\C=C\[C@H](C)[C@H](O)[C@@H](C)[C@@H](O)[C@@H](C)[C@H](OC(C)=O)[C@@H]1C [Rifampicin]
Reduction of lung bacteria, single agent [4]: around 1.6 log10
